# Where two headings read alike, the source gives them in different places.
# Key:
# [1] = Pharmacokinetic oral gavage experiment in rats (serum spilanthol, one compartmental model); format: in vivo, Wistar rats; conditions: for half-life: 1.5 ml of 0.73 mg spilanthol/g dose solution, read-out: elimination half-life (converted)
# Description: The Wistar rats were bred in Bharat Serum and Vaccines pvt. Ltd, Thane, India (registration number 103/99/CPCSEA) and kept for the experiments at C. U. Shah College of Pharmacy, SNDT Women’s University, Santacruz, Mumbai, India (registration number 39/99/CPCSEA). The half of the rats used in the experiment were female rats and the other half male rats. Rats of 7-8 weeks old, weighing 220 g, and fasted overnight were used for the experiment.
# The pharmacokinetic oral gavage experiment was carried out at C. U. Shah College of Pharmacy, SNDT Women’s University, Santacruz, Mumbai, India. A spilanthol dose solution was prepared with the Spilanthes acmella (L.) L. extract (A.Vogel). 1.5 ml of a spilanthol dose solution of 0.73 mg spilanthol/g dose solution in 10:20:30:40 (w/w/w/w) ethanol:PG:vitamin E-TPGS:PEG400 was administered to the rats using a gavage needle made up of stainless steel (length 3 inches and 2.5 mm internal diameter). A blank dose solution was used as well, containing ethanol, PG, vitamin E-TPGS and PEG without spilanthol. For each dose solution, six rats were used of which three were females and three males. Blood was collected (1.5 ml) from the retro orbital vein at specified time points i.e. 1, 2, 3, 4, 6, and 8 h after oral administration of the dose solution. The collected blood samples were centrifuged using a Remi R-24 centrifuge. At the end of the study, the animals were sacrificed by CO2 inhalation. All samples were immediately frozen at -80 °C until bio-analysis. The elimination rate constant was calculated using a one compartmental model using GraphPad software (La Jolla, USA), using the following equation: Ct=C0×e^−ke×t , in which t is time (h), C0 the concentration of spilanthol at time t = 0 (ng/ml), C(t) the concentration of spilanthol at time t and ke the elimination rate constant (h^−1). The elimination half-life (h) is computed as ln(2)/ke.
# 60 μl of the serum samples, 60 μl of 4 % (V/V) aqueous H3PO4 solution and 30 μl of the IS solution were transferred into a 0.5 ml (LoBind Eppendorf) tube and vortexed. Interfering compounds were removed by solid phase extraction using a positive pressure-96 processor (Waters). […] After the loading step, the HLB Oasis® μelution plate was washed using 200 μl of 5 % MeOH in H2O followed by 200 μl of 20 % MeOH in H2O. Spilanthol was eluted using two times 25 μl ACN. To the eluate, 25 μl of a 80:20 (V/V) H2O:MeOH solution was added and analysed with a UPLC-MS^2 method, as further described.
# [2] = Capillary depletion (distribution brain parenchyma versus capillaries); format: in vivo, ICR-CD-1 mice; conditions: female, ICR-CD-1, mouse, iv, 80 μg per mouse, mice, 10 min after i.v. injection
# Description: To investigate the distribution of spilanthol in the parenchyma and capillaries of the brain, a capillary depletion experiment was performed. By means of this experiment, it is possible to distinguish the transport of spilanthol into the brain (represented by the parenchyma) and part of spilanthol which is trapped by the endothelial cells of the brain (represented by the capillaries). The method of Triguero et al., as modified by Gutierrez et al., was used. Briefly, after anesthetizing the mice intraperitoneally with 40 % (w/V) urethane solution (3 g/kg), 20 μl of the 4 mg/ml spilanthol dose solution was injected into the jugular vein. Blood was collected from the abdominal aorta ten min after injection and serum was obtained by centrifuging the blood at 10 000 g during 15 min at 21 °C. Immediately after blood collection, the skin of the mice’s chest is removed to clamp the aorta and the jugular veins are severed. Immediately after clamping the aorta, the brain is perfused manually with 20 ml of Lactated Ringer’s solution. […]
# The distribution was calculated as follows: Fraction%=Mtissue/Mcapillaries+Mparenchyma×100 where Mtissue represents the amount of spilanthol in the capillaries, respectively parenchyma; Mcapillaries the amount of spilanthol in the capillaries and Mparenchyma the amount of spilanthol in the parenchyma.
# [3] = Brain-to-blood transport after intracerebroventricular injection; format: in vivo, ICR-CD-1 mice; conditions: female, ICR-CD-1, mouse, icv or intrathecal, 4 μg per mouse; mice, ICV injection, ln(2)/kout; read-out: efflux brain half-life t1/2,brain
# Description: (§1) To evaluate the efflux of spilanthol out of the brain, an in vivo method previously described was used. Briefly, after anesthetizing the ICR-CD-1 mice using a 40 % (w/V) urethane solution (3 g/kg), the skin of the skull was removed. Thereafter, a hole was made into the lateral ventricle using a 22 G needle marked with tape at 2 mm at the following coordinates: 1 mm lateral and 0.34 mm posterior to the bregma. 1 μl of the 4 mg/ml spilanthol dose solution as used for the blood-to-brain influx experiment was injected intracerebroventriculary (ICV) using a syringe pump (KDS100, KR analytical, Cheshire, UK) at a speed of 360 μl/h for 10 s. […] Prior to decapitation, blood was collected from the abdominal aorta. Serum was obtained by centrifuging the blood at 10 000 g during 15 min at 21 °C and brains were collected. The efflux brain half-life (t1/2,brain) (min) was calculated from the linear regression of the natural logarithm of the spilanthol concentration in brain (ng/g) versus time as follows: t1/2,brain = ln(2)/kout, where kout (min^−1) is defined as the efflux rate constant calculated as the negative value of the slope of the linear regression, applying first order kinetics.
# [4] = system: blood-brain barrier; assay: as above; format: in vivo, ICR-CD-1 mice; conditions: mice, ICV injection of 1 μl of 4 mg/ml dose solution
# Description: as §1
# [5] = system: blood-brain barrier; assay: Blood-to-brain transport, in vivo multiple time regression (MTR) analysis; conditions: mice
# Description: Female, Institute for Cancer Research, Caesarean Derived-1 (ICR-CD-1) mice (Harlan Laboratories, Venray, Netherlands) of age 7–10 weeks and weighing 29–32 g, were used during the BBB transport experiments.
# An in vivo multiple time regression (MTR) analysis was performed to investigate if spilanthol was able to cross the BBB. A dose solution of spilanthol was prepared using the Spilanthes acmella (L.) L. extract (Robertet) with a final concentration of 4 mg/ml spilanthol dissolved in 7.0 % ethanol, 2.5 % dimethylacetamide, 0.6 % tween 80 (all w/w) diluted in lactated Ringer’s solution containing 1 % BSA. The ICR-CD-1 mice were anesthetized by intraperitoneal injection with a 40 % (w/V) urethane solution (3 g/kg) and the jugular internalis vein and carotid artery were isolated, 20 μl of the spilanthol dose solution was injected into the jugular vein. Blood was obtained from the carotid artery at regular time points after injection (1, 3, 5, 10, 12.5 and 15 min, with start and end in duplicate), and the mice were immediately thereafter decapitated. After sacrificing the mice, the brains were collected. The collected blood from the carotid artery was centrifuged at 10 000 g for 15 min at 21 °C, resulting in serum. […]
smiles,measurement,setting,value
"C/C=C/C=C\CC/C=C/C(=O)NCC(C)C [spilanthol, deca-2E,6Z,8E-trienoic acid isobutylamide]",k el,"[1]; both sexes, Wistar, rat, serum, po, 0.73 mg, oral gavage of 1.5 ml of 0.73 mg spilanthol/g dose solution (A. Vogel extract), one compartmental model, read-out: elimination rate constant ke (converted)",0.000167 s⁻¹
same,half-life,"[1]; both sexes, Wistar, rat, serum, po, oral gavage (discussion, in brackets)",1.05 h
same,half-life,"[1]; both sexes, Wistar, rat, serum, po, oral gavage, ln(2)/ke",1.13 h
same,elimination rate constant ke,"[1]; rat serum, oral gavage of 1.5 ml of 0.73 mg spilanthol/g dose solution (A. Vogel extract), one compartmental model",0.61 h⁻¹
same,Kp at 10 min,"[2]; brain capillaries/serum, read-out: spilanthol in brain capillaries (brain/serum ratio)",0.0024
same,Kp at 10 min,"[2]; brain parenchyma/serum, read-out: spilanthol in brain parenchyma (brain/serum ratio)",0.138
same,half-life,[3],6.4 min
same,efflux transfer constant kout,[4],0.11 min⁻¹
same,toxicity during the experiment,"[5]; i.v. spilanthol dose solution with ethanol, dimethylacetamide, tween 80",no toxicity was observed
same,exposure time at which brain/serum ratio curve reached a plateau-phase,"[5]; i.v., MTR",about 10 min

# Source: paper PMC4907212, “Mucosal and blood-brain barrier transport kinetics of the plant N-alkylamide spilanthol using in vitro and in vivo models” (BMC Complementary and Alternative Medicine, 2016)
